The MIC is the least concentration at which growth counts as inhibited. Higher therefore signals a need for much substance.

Data set [1] is filed under the species Rattus norvegicus. The data set is described as follows: Antiinflammatory activity in Sprague-Dawley rat cotton pellet-induced granuloma model. It is filed as functional.
For a further data set, the system named is Candida albicans. As to the kind of experiment: Antimicrobial activity against Candida albicans. Type of data set: functional.
For a further data set, the system named is Escherichia coli. The data set is described as follows: Antimicrobial activity against Escherichia coli ATCC 25922. Type of data set: functional.
For the next data set, the system named is Staphylococcus aureus. The data set is described as follows: Antimicrobial activity against Staphylococcus aureus ATCC 19433. Type of data set: functional.
The subject of data set [2] is Rattus norvegicus. The data set is described as follows: Gastrointestinal toxicity in albino rat assessed as ulcerogenic effect at 30 umol/kg, po for 3 days. The note with it: in vivo, 72 h. It is filed as organism-based.
Data set [3] concerns Rattus norvegicus. As to the kind of experiment: Antiinflammatory activity in albino rat assessed as protection against carrageenan-induced paw edema at 10 umol/kg, sc administered 1 hr prior to carrageenan challenge relative to indomethacin. It is filed as functional. For orientation: The carrageenan paw model is a standard test of acute inflammation.
For data set [4], the system named is Mus musculus. As to the kind of experiment: Toxicity in parenterally dosed mouse upto 65 mg/kg assessed as mortality upto 7 days. Type of data set: organism-based. As to conditions: in vivo, 168 h. Set-up: dose 65 mg/kg.
Data set [5] concerns Mus musculus. The data set is described as follows: Toxicity in mouse upto 40 mg/kg, po assessed as mortality after 24 hrs. It is filed as organism-based. Further details: dose 40 mg/kg, route oral. The note with it: in vivo.
Data set [6] concerns the target Prostaglandin G/H synthase 1 (Homo sapiens, UniProt P23219). The data set is described as follows: Inhibition of human platelet COX1.

Values after ≈ are worked out from the molar mass of the structure shown.

Sequence of Prostaglandin G/H synthase 1 (P23219 whole entry): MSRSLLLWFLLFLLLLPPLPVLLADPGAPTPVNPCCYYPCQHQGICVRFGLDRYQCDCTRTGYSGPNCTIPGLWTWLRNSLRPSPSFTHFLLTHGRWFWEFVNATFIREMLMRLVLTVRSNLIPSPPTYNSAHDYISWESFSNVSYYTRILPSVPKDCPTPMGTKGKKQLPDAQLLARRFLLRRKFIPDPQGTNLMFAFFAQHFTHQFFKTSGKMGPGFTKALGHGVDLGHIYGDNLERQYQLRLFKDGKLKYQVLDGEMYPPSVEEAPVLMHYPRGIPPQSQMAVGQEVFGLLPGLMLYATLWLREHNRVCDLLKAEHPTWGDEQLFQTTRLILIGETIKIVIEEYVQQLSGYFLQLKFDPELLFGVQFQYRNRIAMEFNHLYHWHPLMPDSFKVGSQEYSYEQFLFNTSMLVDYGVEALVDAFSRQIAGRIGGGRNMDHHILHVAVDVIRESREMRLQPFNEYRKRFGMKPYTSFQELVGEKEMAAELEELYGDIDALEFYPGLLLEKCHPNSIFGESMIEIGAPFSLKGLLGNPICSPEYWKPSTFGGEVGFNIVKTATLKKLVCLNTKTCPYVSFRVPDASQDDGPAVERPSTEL

As for `CC(=O)N(C1=NN(C(C)=O)C(c2cn(-c3ccc(S(=O)(=O)/N=C/N(C)C)cc3)nc2-c2ccccc2)S1)c1ccc(Cl)cc1` (stereo unspecified), in the data set filed under Rattus norvegicus [1], the ED50 was 13.96 µmol. For the same compound, the MIC against Candida albicans is 25 µg/mL (≈ 38.5 µM); with Escherichia coli, 50 µg/mL (≈ 76.9 µM); against Staphylococcus aureus it was over 200 µg/mL. In addition, in the data set on Rattus norvegicus [2], the Activity is recorded as 10%.

Compound `CN(C)/C=N/S(=O)(=O)c1ccc(-n2cc(/C=N\N=c3/scc(-c4ccc(Br)cc4)n3-c3ccccc3)c(-c3ccccc3)n2)cc1` registered an ED50 in the data set filed under Rattus norvegicus [1] of 12.96 µmol. The values for the minimal inhibitory concentration (MIC) in the data set with Candida albicans, against Escherichia coli and against Staphylococcus aureus were over 200 µg/mL, 25 µg/mL (≈ 35.2 µM) and 25 µg/mL (≈ 35.2 µM), respectively. Also, in the data set with Rattus norvegicus [2], the Activity is reported as 0%.

With `CN(C)/C=N/S(=O)(=O)c1ccc(-n2cc(-c3nnc(Nc4ccc(Cl)cc4)s3)c(-c3ccccc3)n2)cc1`, the ED50 in the data set filed under Rattus norvegicus [1] is 11.88 µmol. The minimum inhibitory concentration (MIC) with Candida albicans was over 200 µg/mL; against Escherichia coli, 100 µg/mL (≈ 177 µM); with Staphylococcus aureus, 100 µg/mL (≈ 177 µM). Further, the Activity in the data set with Rattus norvegicus [2] worked out at 10%.

`Cc1ccc(Nc2nnc(-c3cn(-c4ccc(S(=O)(=O)/N=C/N(C)C)cc4)nc3-c3ccccc3)s2)cc1`: in the data set filed under Rattus norvegicus [1], the ED50 stood at 12.46 µmol. Moreover, the MIC with Candida albicans was over 200 µg/mL; in the data set with Escherichia coli, 100 µg/mL (≈ 184 µM); in the data set on Staphylococcus aureus, 25 µg/mL (≈ 46 µM). The Activity in the data set on Rattus norvegicus [2] amounted to 10%.

With `CN(C)/C=N/S(=O)(=O)c1ccc(-n2cc(/C=N\N=C3/SCC(=O)N3c3ccc(Cl)cc3)c(-c3ccccc3)n2)cc1`, the Activity in the data set with Rattus norvegicus [3] is given as 104.16%; with Mus musculus [4], “Non-toxic”; in the data set with Mus musculus [5] it was “Non-toxic”; with Rattus norvegicus [2] it was 10%. For the same compound, the ED50 in the data set listed under Rattus norvegicus [1] was 9.12 µmol. In addition, the MIC is over 200 µg/mL against Candida albicans, 100 µg/mL (≈ 165 µM) against Escherichia coli and 25 µg/mL (≈ 41.2 µM) against Staphylococcus aureus. The compound also returned an IC50 in data set [6] of over 100 µmol.

For the compound `Cc1ccc(N2C(=O)CS/C2=N\N=C/c2cn(-c3ccc(S(=O)(=O)/N=C/N(C)C)cc3)nc2-c2ccccc2)cc1`, the Activity is listed as 98.65% in the data set with Rattus norvegicus [3], “Non-toxic” in the data set on Mus musculus [4], “Non-toxic” in the data set on Mus musculus [5] and 20% with Rattus norvegicus [2]. In the data set listed under Rattus norvegicus [1], this compound returned an ED50 of 9.34 µmol. In addition, the MIC in the data set on Candida albicans was 100 µg/mL (≈ 171 µM); in the data set with Escherichia coli, 25 µg/mL (≈ 42.7 µM); against Staphylococcus aureus, 100 µg/mL (≈ 171 µM). This compound also displayed an IC50 in data set [6] of 87.12 µmol.

Turning to `CC(=O)N(C1=NN(C(C)=O)C(c2cn(-c3ccc(S(=O)(=O)/N=C/N(C)C)cc3)nc2-c2ccccc2)S1)c1ccc(C)cc1` (stereo unspecified), in the data set filed under Rattus norvegicus [1], the ED50 was determined as 14.86 µmol. In addition, the results for the minimal inhibitory concentration (MIC) in the data set on Candida albicans, in the data set with Escherichia coli and in the data set on Staphylococcus aureus were 25 µg/mL (≈ 39.7 µM), 50 µg/mL (≈ 79.4 µM) and 100 µg/mL (≈ 159 µM), respectively. For the same compound, the Activity in the data set with Rattus norvegicus [2] amounted to 10%.

With `CC(=O)N(C1=NN(C(C)=O)C(c2cn(-c3ccc(S(=O)(=O)/N=C/N(C)C)cc3)nc2-c2ccccc2)S1)c1ccccc1` (stereo unspecified), in the data set listed under Rattus norvegicus [1], the ED50 is 12.54 µmol. In addition, the minimum inhibitory concentration (MIC) was 50 µg/mL (≈ 81.2 µM) in the data set on Candida albicans, 50 µg/mL (≈ 81.2 µM) in the data set on Escherichia coli and over 200 µg/mL with Staphylococcus aureus. For the same compound, the Activity in the data set on Rattus norvegicus [2] came out at 20%.

As for `CN(C)/C=N/S(=O)(=O)c1ccc(-n2cc(/C=N\N=c3/scc(-c4ccc(Br)cc4)n3-c3ccc(Cl)cc3)c(-c3ccccc3)n2)cc1`, the Activity entry with Mus musculus [4] is “Non-toxic”; in the data set on Mus musculus [5] it was “Non-toxic”; in the data set with Rattus norvegicus [2], 0%. The ED50 in the data set filed under Rattus norvegicus [1] came out at 9.56 µmol. Further, the minimal inhibitory concentration (MIC) in the data set with Candida albicans was 50 µg/mL (≈ 67.1 µM); in the data set on Escherichia coli it was 100 µg/mL (≈ 134 µM); in the data set on Staphylococcus aureus it was 100 µg/mL (≈ 134 µM).

For `Cc1ccc(-n2c(-c3ccc(Br)cc3)cs/c2=N\N=C/c2cn(-c3ccc(S(=O)(=O)/N=C/N(C)C)cc3)nc2-c2ccccc2)cc1`, the Activity with Rattus norvegicus [3] turned out to be 94.46%; with Rattus norvegicus [2], 0%. Also, the ED50 in the data set listed under Rattus norvegicus [1] was found to be 11.06 µmol. Moreover, the MIC in the data set with Candida albicans turned out to be 100 µg/mL (≈ 138 µM); with Escherichia coli it was 50 µg/mL (≈ 69 µM); in the data set with Staphylococcus aureus it was 50 µg/mL (≈ 69 µM). In [6], the IC50 was 96.25 µmol.

Regarding `CN(C)/C=N/S(=O)(=O)c1ccc(-n2cc(-c3nnc(Nc4ccccc4)s3)c(-c3ccccc3)n2)cc1`, the ED50 in the data set filed under Rattus norvegicus [1] is 11.38 µmol. Besides, the MIC in the data set with Candida albicans is 100 µg/mL (≈ 189 µM); against Escherichia coli, 100 µg/mL (≈ 189 µM); against Staphylococcus aureus, over 200 µg/mL. Further, the Activity in the data set on Rattus norvegicus [2] is recorded as 0%.

In the case of `CN(C)/C=N/S(=O)(=O)c1ccc(-n2cc(/C=N\N=C3/SCC(=O)N3c3ccccc3)c(-c3ccccc3)n2)cc1`, in the data set listed under Rattus norvegicus [1], the ED50 came to 13.36 µmol. Also, the MIC with Candida albicans was found to be 100 µg/mL (≈ 175 µM); against Escherichia coli, 50 µg/mL (≈ 87.5 µM); in the data set on Staphylococcus aureus, 25 µg/mL (≈ 43.7 µM). In addition, the Activity in the data set with Rattus norvegicus [2] turned out to be 10%.

In the case of `CC1(C)S[C@@H]2[C@H](NC(=O)[C@H](N)c3ccccc3)C(=O)N2[C@H]1C(=O)O` [AMPICILLIN], the values for the minimum inhibitory concentration (MIC) with Escherichia coli and in the data set with Staphylococcus aureus were 25 µg/mL (≈ 71.5 µM) and 12.5 µg/mL (≈ 35.8 µM), respectively.

In turn, `COc1ccc2c(c1)c(CC(=O)O)c(C)n2C(=O)c1ccc(Cl)cc1` [INDOMETHACIN] came in with an ED50 in the data set filed under Rattus norvegicus [1] of 9.58 µmol. Also, in the data set on Rattus norvegicus [2], the Activity turned out to be 100%.

(Values after ChEMBL document CHEMBL1149776, “Synthesis and biological evaluation of some thiazolyl and thiadiazolyl derivatives of 1H-pyrazole as anti-inflammatory antimicrobial agents” (Eur J Med Chem, 2008).)
